Effect and Glucose normalisation data for 9 compounds are collected here from ChEMBL document CHEMBL1126754, “Hydroxyurea derivatives as hypoglycemic agents” (1993).

Experiment [1] concerns 3T3-L1. Put plainly: Effect on GLUT 1 glucose transporter expression in 3T3-L1 adipocytes at dose of 30 uM. It is filed as functional, Mus musculus.
For experiment [2], the system named is Mus musculus. As to the kind of experiment: In vivo ability to lower blood glucose in the ob/ob mouse model at a dose of 5 mg/kg. It is filed as functional.
Experiment [3] concerns 3T3-L1. Put plainly: Effect on GLUT 1 glucose transporter expression in 3T3-L1 adipocytes at dose of 0.3 uM. It is filed as functional, Mus musculus.
The subject of experiment [4] is Mus musculus. Put plainly: In vivo ability to lower blood glucose in the ob/ob mouse model at a dose of 1 mg/kg. It is filed as functional.
In experiment [5] the test system is Mus musculus. Put plainly: In vivo ability to lower blood glucose in the ob/ob mouse model at a dose of 10 mg/kg. It is filed as functional.
The test system of experiment [6] is Mus musculus. As to the kind of experiment: In vivo ability to lower blood glucose in the ob/ob mouse model at a dose of 25 mg/kg. Format: functional.
Experiment [7] deals with 3T3-L1. As to the kind of experiment: Effect on GLUT 1 glucose transporter expression in 3T3-L1 adipocytes at dose of 3 uM. Format: functional, Mus musculus.

SMILES strings stand for the structures.

`CC1(COc2ccc(CC3SC(=O)NC3=O)cc2)CCCCC1` (configuration not stated) [CIGLITAZONE] displayed an Effect in the experiment on 3T3-L1 [1] of 151.3%.
As to `CNC(=O)N(Cc1ccc(OCCc2nc(-c3ccccc3)oc2C)cc1)OC(=O)OC`, in the experiment with Mus musculus [2], the Glucose normalisation turned out to be 25%.
Still for that read-out and setting: the value for `Cc1oc(-c2ccccc2)nc1CCOc1ccc(CN(OC(=O)Oc2ccccc2)C(N)=O)cc1` was 25%; that for `CCCCCc1ccc(C(=O)N[C@H]2N=C(c3ccccc3)c3ccccc3N(C)C2=O)cc1` was 50%.
As to `COC(=O)ON(Cc1ccc(OCCc2nc(-c3ccccc3)oc2C)cc1)C(N)=O`, the Effect is given as 90.5% in the experiment with 3T3-L1 [3], 164.5% in the experiment with 3T3-L1 [1] and 113% in the experiment with 3T3-L1 [7]. Besides, the Glucose normalisation in the experiment with Mus musculus [4] worked out at 28%; in the experiment with Mus musculus [2], 80%; in the experiment with Mus musculus [5], 77%; with Mus musculus [6] it was 100%.
In the case of `Cc1oc(-c2ccccc2)nc1CCOc1ccc(CN(O)C(N)=O)cc1`, the results for the Effect in the experiment on 3T3-L1 [3], in the experiment on 3T3-L1 [1] and in the experiment with 3T3-L1 [7] were 97%, 140.6% and 109.8%, respectively.
As to `CCOC(=O)ON(Cc1ccc(OCCc2nc(-c3ccccc3)oc2C)cc1)C(N)=O`, in the experiment on Mus musculus [2], the Glucose normalisation is on record as 52%.
The compound `CNC(=O)N(O)Cc1ccc(OCCc2nc(-c3ccccc3)oc2C)cc1` displayed a Glucose normalisation with Mus musculus [2] of 25%.
Regarding `Cc1oc(-c2ccccc2)nc1CCOc1ccc(Cn2oc(=O)[nH]c2=O)cc1`, the figures for the Effect with 3T3-L1 [3], in the experiment with 3T3-L1 [1] and in the experiment on 3T3-L1 [7] were 109.7%, 142.3% and 130.6%, respectively. Also, the Glucose normalisation in the experiment with Mus musculus [4] turned out to be 45%; in the experiment with Mus musculus [5], 100%; in the experiment with Mus musculus [6], 97%.
